Source: US20260242410A1, “CRYSTALLINE FORMS OF A NEUROACTIVE STEROID” (Sage Therapeutics, Inc., priority 2022, published 2026)

Test: Stability of the crystalline solvate form on drying, followed by XRPD
Assay type: physicochemical
Description: XRPD analyses were performed using a PANalytical X′pert pro with PIXcel detector (128 channels), scanning the samples between 3 and 35° 20. Solid Compound (1) was gently ground to release any agglomerates and loaded onto a multi-well plate with a Mylar polymer film to support the sample. The multi-well plate was then placed into the diffractometer and analyzed using Cu K radiation (a1 λ=1.54060 Å; a2=1.54443 Å; β=1.39225 Å; a1: a2 ratio=0.5) running in transmission mode (step size 0.0130° 20, step time 18.87s) using 40 kV/40 mA generator settings. Data were visualized and images generated using the HighScore Plus 4.7 desktop application (PANalytical, 2017). The 20 position was calibrated using alumina powder reference standard on a monthly basis.
100 mg of anhydrous Compound (1) was temperature cycled in 600 μL of acetone for 24 hours. Accordingly, 600 μL of acetone was added in 200 μL aliquots to a vile containing 100 mg of anhydrous Compound (1), to form a movable slurry. The vile was then capped, wrapped in parafilm and temperature cycled in an incubator shaker between ambient temperature and 40° C. with a 4 hour hold at each temperature. After 24 hours, the solid Compound (1) Acetone Solvate Form was isolated by centrifugation.
Approximately 200 mg of anhydrous Compound (1) was weighed into a scintillation vial and 1 mL of DMSO added to form a slurry. The slurry was then temperature cycled between ambient temperature and 40° C. in 4 hour cycles for 48 hours. After this time, the sample was dried in a 40° C. oven. On removal from the oven, the sample remained wet, so the sample was isolated by centrifuge filtration and then dried under vacuum at ambient conditions over night. After drying, the sample was reanalyzed by XRPD to be Compound (1) DMSO Solvate Form.
FIG. 4 depicts a non-normalized X-ray powder diffraction pattern for Compound (1) DMSO Solvate Form. The XRPD pattern was stable on drying under vacuum.

| SMILES | XRPD pattern stability on drying (drying under vacuum) | Crystallinity / XRPD pattern after gentle drying (72 hours gentle drying at ambient temperature (no vacuum), repreparation by temperature cycling) | Solid form obtained after complete drying (complete drying of the product) | Crystallinity / XRPD pattern after gentle drying (drying at 40° C. for 24 hours) |
| --- | --- | --- | --- | --- |
| COC[C@@]1(O)CC[C@H]2[C@@H](CC[C@@H]3[C@@H]2CC[C@]2(C)[C@@H](C(=O)Cn4nnc(C)n4)CC[C@@H]32)C1 [Compound (1) DMSO Solvate Form] | stable |  |  |  |
| COC[C@@]1(O)CC[C@H]2[C@@H](CC[C@@H]3[C@@H]2CC[C@]2(C)[C@@H](C(=O)Cn4nnc(C)n4)CC[C@@H]32)C1 [Compound (1) Acetone Solvate Form] |  | the XRPD pattern had not changed, there was a significant drop in crystallinity | produces crystalline anhydrous Compound (1) | significant loss in crystallinity, but negligible change in the XRPD pattern |
